The target in experiment [1] is Rho-associated protein kinase 2 (Homo sapiens) (UniProt O75116). The experiment is described as follows: Inhibition of ROCK2 (unknown origin) at 200 uM using MYPT1 as substrate after 30 mins by immunoassay.
In experiment [2] the test system is Uterus. The experiment in a line: Inhibition of oxytocin-induced uterus contraction in non-pregnant Sprague-Dawley rat measured for 300 secs. Type of experiment: functional, tissue-based.
For experiment [3], the system named is Uterus. The experiment in a line: Inhibition of oxytocin-induced uterus contraction in Sprague-Dawley rat during parturition period at 10^-10 to 10^-5 M measured for 300 secs. In kind it is functional, tissue-based.
In experiment [4] the test system is Uterus. The experiment is described as follows: Inhibition of oxytocin-induced uterus contraction in 20 days pregnant Sprague-Dawley rat at 10^-10 to 10^-5 M measured for 300 secs. Type of experiment: functional, tissue-based.

Molecules are shown by their SMILES. Calls of active or inactive are those of the source. No cut-off for these calls is given here.

Sequence of Rho-associated protein kinase 2 (Homo sapiens) (O75116 whole entry, looked up): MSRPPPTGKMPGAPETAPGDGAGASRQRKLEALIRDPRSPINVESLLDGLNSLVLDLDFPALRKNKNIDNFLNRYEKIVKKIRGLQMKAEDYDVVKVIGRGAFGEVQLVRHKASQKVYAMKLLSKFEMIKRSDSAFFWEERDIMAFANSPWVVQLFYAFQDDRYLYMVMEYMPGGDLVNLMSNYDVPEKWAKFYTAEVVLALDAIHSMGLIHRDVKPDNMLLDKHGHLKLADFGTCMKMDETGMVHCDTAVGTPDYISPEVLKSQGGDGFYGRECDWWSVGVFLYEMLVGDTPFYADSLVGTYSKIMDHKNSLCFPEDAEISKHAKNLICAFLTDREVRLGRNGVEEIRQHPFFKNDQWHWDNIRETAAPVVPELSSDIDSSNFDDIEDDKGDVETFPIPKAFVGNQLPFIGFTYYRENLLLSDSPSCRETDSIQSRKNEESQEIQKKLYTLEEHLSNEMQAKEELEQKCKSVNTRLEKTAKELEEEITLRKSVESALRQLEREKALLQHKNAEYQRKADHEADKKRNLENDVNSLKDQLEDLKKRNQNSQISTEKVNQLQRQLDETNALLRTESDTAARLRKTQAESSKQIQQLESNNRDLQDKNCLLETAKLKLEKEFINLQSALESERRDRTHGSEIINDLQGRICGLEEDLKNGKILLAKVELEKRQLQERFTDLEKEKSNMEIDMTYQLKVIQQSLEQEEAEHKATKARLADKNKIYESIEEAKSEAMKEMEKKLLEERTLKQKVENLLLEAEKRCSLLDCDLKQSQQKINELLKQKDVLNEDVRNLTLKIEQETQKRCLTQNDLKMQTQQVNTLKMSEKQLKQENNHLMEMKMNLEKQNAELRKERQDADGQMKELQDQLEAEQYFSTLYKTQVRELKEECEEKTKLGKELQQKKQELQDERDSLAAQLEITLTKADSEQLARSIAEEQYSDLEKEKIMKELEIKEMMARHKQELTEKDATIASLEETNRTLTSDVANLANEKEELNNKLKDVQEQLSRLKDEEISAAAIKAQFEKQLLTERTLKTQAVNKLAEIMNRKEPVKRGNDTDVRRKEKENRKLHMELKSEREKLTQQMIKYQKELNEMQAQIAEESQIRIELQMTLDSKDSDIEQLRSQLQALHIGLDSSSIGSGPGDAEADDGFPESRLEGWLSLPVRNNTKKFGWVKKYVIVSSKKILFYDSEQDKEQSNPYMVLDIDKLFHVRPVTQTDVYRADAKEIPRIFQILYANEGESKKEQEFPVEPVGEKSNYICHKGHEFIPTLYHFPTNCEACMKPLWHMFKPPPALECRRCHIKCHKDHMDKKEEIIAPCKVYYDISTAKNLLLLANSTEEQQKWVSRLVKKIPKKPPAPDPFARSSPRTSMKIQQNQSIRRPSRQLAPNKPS

As for `COc1cc2c(cc1OC)C(C1CCc3nc(N4CCOCC4)[nH]c(=O)c3C1)=NCC2` (stereo not drawn), the “ROCK2 inhibition activity call (active/not active)” value in experiment [1] was “inactive”. Also, in experiment [2], the Emax (in general, the size of the effect at its maximum, as opposed to the concentration needed) stood at 47.3% and the IC50 (usually the concentration that inhibits the measured activity by half) was determined as 24.2 nM.

With `COc1cc2c(cc1OC)C(c1ccccc1)N(C1CCCC1O)CC2` (stereo not drawn), in experiment [2], the Emax turned out to be 58.8% and the IC50 came out at 610 nM.

As to `CCOc1cc2c(cc1OCC)CN(C1CCCCC1O)CC2` (stereo not drawn), the “ROCK2 inhibition activity call (active/not active)” value in experiment [1] is “inactive”. For the same molecule, in experiment [2], the Emax is 48% and half-maximal inhibition (IC50) required 37.1 nM.

Consider `COc1cc2c(cc1OC)C1CCO/C(=N\Cc3ccccc3)N1CC2` (stereo not drawn), for which, in experiment [2], the Emax was 55.1% and half-maximal inhibition (IC50) was put at 522 nM.

In experiment [2], `COc1cc2c(cc1OC)C(C(CO)CO)N(C(=O)c1ccc(C(F)(F)F)cc1)CC2` (stereo not drawn) yielded a maximum response (Emax) of 66.4% and an IC50 of 263 nM.

`COc1cc2c(cc1OC)C1(C)N(CC2)C(c2ccccc2)=NN1c1ccc(Cl)cc1` (stereo not drawn): in experiment [2], the Emax is 53.2% and the IC50 turned out to be 258 nM.

Turning to `CCOc1ccc(/C=C2\NCCc3cc(OCC)c(OCC)cc32)cc1OCC` [DROTAVERINE], in experiment [2], the Emax stood at 88.8% and half-maximal inhibition (IC50) was put at 1940 nM.

In experiment [2], `C[C@@H](N)[C@H]1CC[C@H](C(=O)Nc2ccncc2)CC1` [Y-27632] registered an Emax of 82.3% and an IC50 of 505 nM.

Consider `C#CC[N+]12CCc3cc(OC)c(OC)cc3C1C(CO)C2` (stereo not drawn), for which the “ROCK2 inhibition activity call (active/not active)” value in experiment [1] was “inactive”. In addition, in experiment [2], the Emax was 54.5% and half-maximal inhibition (IC50) required 32.2 nM.

In experiment [2], `COc1cc2c(cc1OC)C1C(COC(=O)Nc3ccccc3)CN1CC2` (stereo not drawn) yielded an Emax of 54.5% and an IC50 of 495 nM.

For `CCOc1cc2c(cc1OCC)C(CCO)N(C(=S)Nc1cccc(C(F)(F)F)c1)CC2` (stereo not drawn), in experiment [2], the Emax came to 84.7% and the midpoint of inhibition, the IC50, lay at 1080 nM.

In experiment [2], `COc1cc2c(cc1OC)C1C(Cc3ccccc3)CN1CC2` (stereo not drawn) registered a maximal response (Emax) of 57.2% and a half-inhibitory concentration (IC50) of 788 nM.

With `COc1cc2c(cc1OC)C1C(C)CN1CC2` (stereo not drawn), the “ROCK2 inhibition activity call (active/not active)” value in experiment [1] was “inactive”. In experiment [2], this molecule registered an Emax of 43.7% and an IC50 of 8.24 nM.

`COc1cc2c(cc1OC)C1C(CO)COC(=N)N1CC2` (stereo not drawn): the “ROCK2 inhibition activity call (active/not active)” value in experiment [1] is “inactive”. Moreover, in experiment [2], the Emax is 50.4% and the IC50 came out at 13.3 nM.

On to `O=S(=O)(c1cccc2cnccc12)N1CCCNCC1` [FASUDIL], for which the inhibition result in experiment [3] is “Active”. Moreover, in experiment [2], the Emax amounted to 87.4% and the IC50 worked out at 781 nM. For the same molecule, the inhibition result in experiment [4] was “Active”.

Regarding `COc1cc2c(cc1OC)C(CC#N)N(C(=O)Nc1cccc(C(F)(F)F)c1)CC2` (stereo not drawn), in experiment [2], the Emax was 72.2% and it took 1250 nM to reach half-maximal inhibition (IC50).

For the molecule `COc1cc2c(cc1OC)C(C(CO)CO)N(C1CCCC1)CC2` (stereo not drawn), the “ROCK2 inhibition activity call (active/not active)” value in experiment [1] is “inactive”. In experiment [2], this molecule had an Emax of 54.5% and an IC50 of 84.5 nM.

In the case of `COc1ccc(CC[N+](C)(CCO)C2CCCCC2)cc1OC` (stereo not drawn), the “ROCK2 inhibition activity call (active/not active)” value in experiment [1] is “inactive”. In experiment [2], the Emax is 49.6% and it took 18.9 nM to reach half-maximal inhibition (IC50).

In experiment [2], `COc1ccc(CCNC(=O)C(C)(C)C)cc1OC` yielded an Emax of 52.8% and an IC50 of 191 nM.

On to `COc1cc2c(cc1OC)C(C)N(C1CCCCC1O)CC2` (stereo not drawn), for which the “ROCK2 inhibition activity call (active/not active)” value in experiment [1] was “inactive”. For the same molecule, in experiment [2], the Emax is 45.6% and it took 90.2 nM to reach half-maximal inhibition (IC50).

Turning to `COc1ccc(CCNC2CCCCC2O)cc1OC` (stereo not drawn), the “ROCK2 inhibition activity call (active/not active)” value in experiment [1] is “inactive”. In addition, in experiment [2], the Emax came to 51.7% and the IC50 is 98.1 nM.

In experiment [2], `CCOc1cc2c(cc1OCC)C1C(CO)CS/C(=N\c3ccc(C)cc3)N1CC2` (stereo not drawn) had a maximal effect (Emax) of 82.5% and an IC50 of 1170 nM.

As for `COc1cc2c(cc1OC)C(C(CO)COC(=O)c1ccccc1)N(CCC#N)CC2` (stereo not drawn), in experiment [2], the Emax was determined as 53.3% and 278 nM corresponded to half-maximal inhibition (IC50).

Turning to `COc1cc2c(cc1OC)C(C(CO)CO)N(C(=S)Nc1ccccc1)CC2` (stereo not drawn), the “ROCK2 inhibition activity call (active/not active)” value in experiment [1] is “Active”. In addition, the inhibition result in experiment [3] was “Active”. In experiment [2], this molecule registered an Emax of 52.5% and an IC50 of 158 nM. For the same molecule, the inhibition entry in experiment [4] is “Active”.

As for `CCOc1ccc(CCN(CCO)C2CCCCC2O)cc1OCC` (stereo not drawn), in experiment [1], the “ROCK2 inhibition activity call (active/not active)” value is “Active”. Also, the inhibition result in experiment [3] is “Active”. In experiment [2], this molecule showed an Emax of 46.3% and a half-inhibitory concentration (IC50) of 41.8 nM. In addition, the inhibition entry in experiment [4] was “Active”.

In experiment [2], `COc1cc2c(cc1OC)C(C(CO)COC(=O)c1ccccc1)N(C(=S)Nc1ccccc1)CC2` (stereo not drawn) gave an Emax of 83.5% and an IC50 of 1190 nM.

In experiment [2], `COc1ccc(Cc2nccc3cc(OC)c(OC)cc23)cc1OC` [PAPAVERINE] registered an Emax of 98.5% and an IC50 of 420 nM.

In experiment [2], `COc1cc2c(cc1OC)C(C(CO)Cc1ccccc1)NCC2` (stereo not drawn) registered an Emax of 76.6% and an IC50 of 723 nM.

The record behind these values is ChEMBL document CHEMBL4184093, “Effects of newly synthetized isoquinoline derivatives on rat uterine contractility and ROCK II activity” (Bioorg Med Chem Lett, 2018).
